Tests used:
ULK kinase [1] = test: pATG13 levels of mutant KRas A549 cells after treatment with ULK inhibitors in combination with trametinib (ELISA); assay type: cell-based, human; settings: A549 (KRAS mutant) lung cancer cells, 250 nM trametinib, overnight, pS318-ATG13
Summary of the method: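 Lysates with phosphatase/protease inhibitors assayed by pATG13 ELISA, A450 minus A540 background and blank-corrected. % ATG13 phosphorylation versus DMSO controls fitted to IC50.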

ULK kinase [2] = test: pATG13 levels of mutant KRas MiaPaCa-2 cells after treatment with ULK inhibitors in combination with trametinib (ELISA); assay type: cell-based, human; settings: MiaPaCa-2 pancreatic cancer cells, 250 nM trametinib, overnight, pS318-ATG13
Summary of the method: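 MiaPaCa-2 cells in DMEM with 10% FBS and 2.5% horse serum were pretreated with trametinib or DMSO, then given a test-compound dose response overnight at 37° C. Lysates were assayed for phospho-ATG13 by ELISA (A450 minus A540 background, blank-corrected). % phosphorylation was calculated relative to controls and fitted to IC50.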

ULK kinase [3] = test: pATG13 levels of mutant HRas T24 cells after treatment with ULK inhibitors in combination with trametinib (ELISA); assay type: cell-based, human; settings: T24 urinary bladder cancer cells (mutant HRas), 250 nM trametinib, overnight, pS318-ATG13
Method: T24 human urinary bladder cancer cells (25000 cells/well) were added to a 96-well tissue-culture treated plate in 100 μL of pre-warmed DMEM medium supplemented with 10% characterized fetal bovine serum (Invitrogen, Carlsbad, Calif.), 100 units/mL penicillin G, and 100 μg/mL streptomycin and allowed to grow overnight at 37° C., 5% CO2, and 95% humidity. The following day, 100 μL of media containing trametinib or DMSO as a control was added to wells. […] A dose response of a test compound (0.5 μL per well) was added. DMSO (0.5 μL) was added to control wells. The plate was briefly shaken to mix wells and then incubated at 37° C. overnight. The next day, the media was aspirated and cells were washed with Dulbecco's Phosphate Buffered Saline (Gibco). Cells were lysed using MPER lysis buffer (Pierce, Rockford, Ill.) containing Halt Phosphatase and Protease Inhibitors (Pierce, Rockford, Ill.) and Phosphatase inhibitor cocktail 2 (Sigma, St. Louis, Mo.) at 4° C. for 10 minutes with shaking.
Plate wells were washed with ELISA wash buffer. Cell lysate was added to wells and incubated at room temperature for 2 hours. Plate wells were washed with ELISA wash buffer. […] Plate wells were washed with ELISA wash buffer. […] Plate wells were washed with ELISA wash buffer. […] The reaction was stopped with 2N Sulfuric Acid. The plate was analyzed at on a plate reader measuring absorbance at 450 nm and 540 nm (background). Signal was calculated by first subtracting the background absorbance at 540 nm from the absorbance at 450 nm for each well. Next, the background corrected absorbance at 450 nm from blank wells was subtracted from test wells. Data was compared to control wells to determine % ATG13 phosphorylation. GraphPad Prism was used to calculate IC50 values.

LRRK2 kinase = target: T1, LRRK2 kinase (Homo sapiens, UniProt Q5S007); test: Biochemical assay for LRRK2 (coupled pyruvate kinase/lactate dehydrogenase assay); settings: 26.4 nM LRRK2 (residues 970-2528), peptide substrate, 1 mM ATP
T1 construct: purchased Thermo Fisher
Summary of the method: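 Recombinant LRRK2 (26.4 nM) with 0.1 mM peptide substrate and 1 mM ATP in Tris pH 7.5/MgCl2 buffer; ADP production coupled via PK/LDH to NADH oxidation, A340 read continuously 6 h at 30 °C. Rates from 2–3 h window converted to % inhibition versus no-compound and reference-inhibitor controls; IC50 fitted.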

T1 sequence (Q5S007 with tags, fused parts or gaps): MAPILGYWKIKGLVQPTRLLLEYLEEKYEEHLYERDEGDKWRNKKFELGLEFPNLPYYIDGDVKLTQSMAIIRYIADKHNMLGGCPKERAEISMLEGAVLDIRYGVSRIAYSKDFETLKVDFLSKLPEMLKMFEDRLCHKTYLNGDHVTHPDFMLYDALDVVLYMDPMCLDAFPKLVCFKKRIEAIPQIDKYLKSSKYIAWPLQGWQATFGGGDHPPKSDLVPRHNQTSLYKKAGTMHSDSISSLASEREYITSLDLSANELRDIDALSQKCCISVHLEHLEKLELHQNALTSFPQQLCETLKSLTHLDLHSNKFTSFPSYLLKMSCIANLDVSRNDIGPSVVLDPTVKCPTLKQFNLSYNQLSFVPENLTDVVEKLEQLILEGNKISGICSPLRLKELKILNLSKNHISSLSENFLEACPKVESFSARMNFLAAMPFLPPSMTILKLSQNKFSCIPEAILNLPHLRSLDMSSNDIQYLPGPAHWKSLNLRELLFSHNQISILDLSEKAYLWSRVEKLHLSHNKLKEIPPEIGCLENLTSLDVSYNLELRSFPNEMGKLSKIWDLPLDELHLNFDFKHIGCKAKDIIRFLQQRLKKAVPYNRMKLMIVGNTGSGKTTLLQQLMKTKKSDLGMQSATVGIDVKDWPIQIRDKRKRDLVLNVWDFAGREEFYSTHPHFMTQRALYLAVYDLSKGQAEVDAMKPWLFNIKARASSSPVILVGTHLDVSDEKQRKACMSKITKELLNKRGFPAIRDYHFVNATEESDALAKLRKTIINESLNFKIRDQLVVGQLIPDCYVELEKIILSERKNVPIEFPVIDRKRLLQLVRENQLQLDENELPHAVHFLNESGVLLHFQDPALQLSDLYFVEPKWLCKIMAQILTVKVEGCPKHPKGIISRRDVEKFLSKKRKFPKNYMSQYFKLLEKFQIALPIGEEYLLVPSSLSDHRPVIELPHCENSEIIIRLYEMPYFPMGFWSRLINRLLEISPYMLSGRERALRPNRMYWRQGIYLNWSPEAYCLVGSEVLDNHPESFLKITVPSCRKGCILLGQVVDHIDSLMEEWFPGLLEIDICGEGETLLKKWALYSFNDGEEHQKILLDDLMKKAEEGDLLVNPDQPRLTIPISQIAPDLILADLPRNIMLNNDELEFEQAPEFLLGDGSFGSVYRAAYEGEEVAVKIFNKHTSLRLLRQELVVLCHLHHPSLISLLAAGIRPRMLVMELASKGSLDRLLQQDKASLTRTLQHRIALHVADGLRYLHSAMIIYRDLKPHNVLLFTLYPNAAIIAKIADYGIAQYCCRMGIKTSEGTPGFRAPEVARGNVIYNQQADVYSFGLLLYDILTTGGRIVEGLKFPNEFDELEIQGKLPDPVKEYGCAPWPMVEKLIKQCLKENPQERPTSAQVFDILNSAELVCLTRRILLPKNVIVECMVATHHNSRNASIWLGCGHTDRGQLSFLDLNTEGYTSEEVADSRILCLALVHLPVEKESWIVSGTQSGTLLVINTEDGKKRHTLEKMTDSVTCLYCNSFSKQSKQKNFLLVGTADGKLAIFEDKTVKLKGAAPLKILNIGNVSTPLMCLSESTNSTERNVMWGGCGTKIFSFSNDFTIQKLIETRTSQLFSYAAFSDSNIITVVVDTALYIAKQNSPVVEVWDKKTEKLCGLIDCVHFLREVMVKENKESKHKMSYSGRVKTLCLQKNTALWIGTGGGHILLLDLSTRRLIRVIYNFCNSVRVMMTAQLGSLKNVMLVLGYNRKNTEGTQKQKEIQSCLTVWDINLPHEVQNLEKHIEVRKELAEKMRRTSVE

Compound | IC50 (ULK kinase [1]) [nM] | IC50 (ULK kinase [2]) [nM] | IC50 (ULK kinase [3]) [nM] | IC50 (LRRK2 kinase) [nM]
CCc1cc(N2CCN(C)CC2)ccc1Nc1ncc(Br)c(NCCCN2CCOCCC2=O)n1 [Example 76] | 10 to 100 | 10 to 100 | 10 to 100 | 100 to 300
CN1CCN(c2ccc(Nc3ncc(Cl)c(NCCCN4CCCOCC4=O)n3)c(C3CC3)c2)CC1 [Example 55] | 100 to 300 | 10 to 100 |  | 100 to 300
CCc1cc(N2CCN(C)CC2)c(F)cc1Nc1ncc(C(F)(F)F)c(NCCCN2CCOCCC2=O)n1 [Example 86] | 10 to 100 | 10 to 100 | 100 to 300 | 1 to 100
O=C1OCCCN1CCCNc1nc(Nc2ccc(N3CCNCC3)cc2C2CC2)ncc1C(F)(F)F [Example 99] | 10 to 100 | 100 to 300 | 100 to 300 | 1 to 100
CN1CCN(c2ccc(Nc3ncc(C(F)(F)F)c(NCCCN4CCCCC4=O)n3)c(C3CC3)c2)CC1 [Example 14] | 10 to 100 | 10 to 100 | 10 to 100 | 1 to 100
CN1CCN(c2ccc(Nc3ncc(C(F)(F)F)c(NCCCN4CCCOCC4=O)n3)c(C3CC3)c2)CC1 [Example 52] | 10 to 100 | 10 to 100 |  | 1 to 100
CN1CCN(c2ccc(Nc3ncc(C(F)(F)F)c(NCCCN4CCCOC4=O)n3)c(C3CC3)c2)CC1 [Example 41] | 10 to 100 | 10 to 100 | 10 to 100 | 1 to 100
CCc1cc(N2CCN(C)CC2)ccc1Nc1ncc(C(F)(F)F)c(NCCCN2CCCOC2=O)n1 [Example 39] | 10 to 100 | 10 to 100 | 10 to 100 | 1 to 100
CCc1cc(N2CC3CCC(C2)N3C)ccc1Nc1ncc(C(F)(F)F)c(NCCCN2CCOCCC2=O)n1 [Example 74] | 10 to 100 | 10 to 100 | 10 to 100 | 300 to 600
CN1CCN(c2ccc(Nc3ncc(C(F)(F)F)c(NCCCN4CCOCCC4=O)n3)c(C3CC3)c2)CC1 [Example 70] | 10 to 100 | 10 to 100 | 10 to 100 | 1 to 100
CCc1cc(N2CCNCC2)ccc1Nc1ncc(C(F)(F)F)c(NCCCN2CCOCCC2=O)n1 [Example 84] | 10 to 100 | 10 to 100 | 100 to 300 | 100 to 300
CCc1cc(N2CCNCC2)ccc1Nc1ncc(C(F)(F)F)c(NCCCN2CCCOC2=O)n1 [Example 46] | 10 to 100 | 10 to 100 | 100 to 300 | 100 to 300
